Measured values taken from ChEMBL document CHEMBL1909046, “DrugMatrix in vitro pharmacology data”.

Experiments:
[1] = DRUGMATRIX: Nicotinic Acetylcholine radioligand binding (ligand: [125I] Epibatidine); assay type: cell membranes, Membrane; settings: imr-32; Not Active = under 50% inhibition at 10 µM
[2] = molecular target: T1, Angiotensin-converting enzyme (Oryctolagus cuniculus, UniProt P12822); experiment: biochemical; assay type: tissue-based, Lung;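 further: enzymatic inhibition of angiotensin-converting enzyme measured with FAPGG as the substrate; in other assays of this panel Not Active means under 50% inhibition at 10 µM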
T1 sequence (P12822 whole entry): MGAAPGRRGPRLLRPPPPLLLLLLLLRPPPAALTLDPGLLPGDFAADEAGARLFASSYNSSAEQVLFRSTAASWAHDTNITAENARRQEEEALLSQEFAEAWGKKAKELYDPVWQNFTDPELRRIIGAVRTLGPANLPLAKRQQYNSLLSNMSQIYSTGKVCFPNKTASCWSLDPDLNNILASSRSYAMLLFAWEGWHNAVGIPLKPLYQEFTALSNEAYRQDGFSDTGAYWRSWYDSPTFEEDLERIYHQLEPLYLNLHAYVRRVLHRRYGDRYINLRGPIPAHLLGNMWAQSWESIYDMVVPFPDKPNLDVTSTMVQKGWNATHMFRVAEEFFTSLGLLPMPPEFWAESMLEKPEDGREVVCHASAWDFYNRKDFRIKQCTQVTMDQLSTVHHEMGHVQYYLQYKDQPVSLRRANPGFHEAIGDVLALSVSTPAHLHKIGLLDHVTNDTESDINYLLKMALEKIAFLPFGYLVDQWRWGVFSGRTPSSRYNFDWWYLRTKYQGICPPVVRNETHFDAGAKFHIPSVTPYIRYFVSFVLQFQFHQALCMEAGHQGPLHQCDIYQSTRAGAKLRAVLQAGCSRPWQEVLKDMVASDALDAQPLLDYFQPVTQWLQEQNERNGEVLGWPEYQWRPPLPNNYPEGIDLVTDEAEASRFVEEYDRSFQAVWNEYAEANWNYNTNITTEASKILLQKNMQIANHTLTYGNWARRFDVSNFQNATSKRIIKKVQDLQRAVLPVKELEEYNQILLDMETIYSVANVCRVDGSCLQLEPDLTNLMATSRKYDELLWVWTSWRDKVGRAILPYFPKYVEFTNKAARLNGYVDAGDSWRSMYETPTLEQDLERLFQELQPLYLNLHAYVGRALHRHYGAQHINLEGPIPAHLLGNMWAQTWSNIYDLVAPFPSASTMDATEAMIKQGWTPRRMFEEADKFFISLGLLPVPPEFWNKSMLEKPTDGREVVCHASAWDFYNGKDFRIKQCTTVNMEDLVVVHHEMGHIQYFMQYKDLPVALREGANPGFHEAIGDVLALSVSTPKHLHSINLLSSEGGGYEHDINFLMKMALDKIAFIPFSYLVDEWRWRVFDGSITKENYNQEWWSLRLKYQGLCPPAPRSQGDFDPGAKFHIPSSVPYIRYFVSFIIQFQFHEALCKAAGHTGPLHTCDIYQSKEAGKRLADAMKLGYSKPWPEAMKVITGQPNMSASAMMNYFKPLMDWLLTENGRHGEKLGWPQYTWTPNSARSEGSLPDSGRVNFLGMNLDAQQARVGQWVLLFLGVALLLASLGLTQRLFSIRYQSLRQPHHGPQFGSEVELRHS

[3] = molecular target: Cytochrome P450 2E1 (Homo sapiens, UniProt P05181); settings: bti-tn-5b1-4; further: in other assays of this panel Not Active means under 50% inhibition at 10 µM
Sequence of Cytochrome P450 2E1 (P05181 whole entry): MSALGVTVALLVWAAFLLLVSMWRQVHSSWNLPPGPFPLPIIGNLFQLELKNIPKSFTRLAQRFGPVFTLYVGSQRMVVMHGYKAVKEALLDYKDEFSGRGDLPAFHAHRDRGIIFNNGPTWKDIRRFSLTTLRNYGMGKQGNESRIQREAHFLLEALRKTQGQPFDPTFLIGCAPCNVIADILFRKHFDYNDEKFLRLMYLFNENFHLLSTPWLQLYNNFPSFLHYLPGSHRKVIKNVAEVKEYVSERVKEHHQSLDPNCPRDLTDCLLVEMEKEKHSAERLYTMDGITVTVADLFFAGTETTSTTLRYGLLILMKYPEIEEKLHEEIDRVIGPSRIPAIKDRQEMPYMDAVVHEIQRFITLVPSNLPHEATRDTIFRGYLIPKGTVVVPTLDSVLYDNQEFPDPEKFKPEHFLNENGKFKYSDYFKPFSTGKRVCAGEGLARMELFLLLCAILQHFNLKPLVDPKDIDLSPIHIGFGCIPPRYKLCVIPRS

[4] = DRUGMATRIX: Interleukin IL-1 radioligand binding (ligand: [125I] interleukin 1beta); assay type: cell membranes, Membrane; settings: nih3t3; Not Active = under 50% inhibition at 10 µM
[5] = molecular target: T2, 3-hydroxy-3-methylglutaryl-coenzyme A reductase (Homo sapiens, UniProt P04035); design: species or system Escherichia coli;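 further: enzyme inhibition assay of HMG-CoA reductase using radiolabeled [14C]HMG-CoA as substrate; in other assays of this panel Not Active means under 50% inhibition at 10 µM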
T2 sequence (P04035 whole entry): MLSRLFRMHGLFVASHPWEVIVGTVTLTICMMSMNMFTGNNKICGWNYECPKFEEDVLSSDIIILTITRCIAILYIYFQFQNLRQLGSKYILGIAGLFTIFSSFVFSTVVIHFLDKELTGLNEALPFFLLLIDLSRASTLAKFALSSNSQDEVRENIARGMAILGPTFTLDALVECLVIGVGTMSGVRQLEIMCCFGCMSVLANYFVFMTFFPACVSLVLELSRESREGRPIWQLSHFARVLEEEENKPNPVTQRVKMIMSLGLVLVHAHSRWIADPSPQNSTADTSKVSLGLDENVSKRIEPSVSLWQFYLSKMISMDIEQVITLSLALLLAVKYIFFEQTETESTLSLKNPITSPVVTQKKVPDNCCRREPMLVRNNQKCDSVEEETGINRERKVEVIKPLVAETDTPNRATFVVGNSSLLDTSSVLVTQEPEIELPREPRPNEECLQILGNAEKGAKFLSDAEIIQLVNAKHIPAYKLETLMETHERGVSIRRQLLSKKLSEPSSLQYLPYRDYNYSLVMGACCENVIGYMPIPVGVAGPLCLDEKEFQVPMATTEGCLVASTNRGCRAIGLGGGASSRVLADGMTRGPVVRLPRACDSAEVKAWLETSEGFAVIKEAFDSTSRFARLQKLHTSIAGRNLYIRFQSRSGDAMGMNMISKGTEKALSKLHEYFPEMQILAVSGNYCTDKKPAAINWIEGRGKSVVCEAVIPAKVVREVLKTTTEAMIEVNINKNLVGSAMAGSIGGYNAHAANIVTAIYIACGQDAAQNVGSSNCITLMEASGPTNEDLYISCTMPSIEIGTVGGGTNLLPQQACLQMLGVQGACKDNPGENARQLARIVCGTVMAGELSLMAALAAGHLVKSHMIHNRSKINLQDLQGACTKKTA

[6] = molecular target: Estrogen receptor beta (Homo sapiens, UniProt Q92731); settings: sf9; further: in other assays of this panel Not Active means under 50% inhibition at 10 µM
Sequence of Estrogen receptor beta (Q92731 whole entry): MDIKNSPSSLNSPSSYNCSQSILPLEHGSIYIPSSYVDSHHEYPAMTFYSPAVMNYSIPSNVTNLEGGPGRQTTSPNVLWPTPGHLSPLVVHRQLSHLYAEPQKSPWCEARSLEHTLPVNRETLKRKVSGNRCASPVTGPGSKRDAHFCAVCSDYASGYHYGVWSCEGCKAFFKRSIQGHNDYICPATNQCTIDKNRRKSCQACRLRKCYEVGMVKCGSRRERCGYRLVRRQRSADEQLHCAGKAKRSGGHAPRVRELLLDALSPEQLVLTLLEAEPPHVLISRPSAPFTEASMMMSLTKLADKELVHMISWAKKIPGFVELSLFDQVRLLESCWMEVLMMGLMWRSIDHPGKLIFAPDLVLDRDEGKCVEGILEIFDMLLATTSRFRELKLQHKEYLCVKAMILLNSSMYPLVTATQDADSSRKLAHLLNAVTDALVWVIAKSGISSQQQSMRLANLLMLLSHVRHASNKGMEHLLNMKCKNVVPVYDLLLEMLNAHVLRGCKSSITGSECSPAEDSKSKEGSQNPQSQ

[7] = molecular target: C-C chemokine receptor type 2 (Homo sapiens, UniProt P41597); assay type: cell membranes, CHO-K1, Membrane; settings: cho-k1; further: in other assays of this panel Not Active means under 50% inhibition at 10 µM
Sequence of C-C chemokine receptor type 2 (P41597 whole entry): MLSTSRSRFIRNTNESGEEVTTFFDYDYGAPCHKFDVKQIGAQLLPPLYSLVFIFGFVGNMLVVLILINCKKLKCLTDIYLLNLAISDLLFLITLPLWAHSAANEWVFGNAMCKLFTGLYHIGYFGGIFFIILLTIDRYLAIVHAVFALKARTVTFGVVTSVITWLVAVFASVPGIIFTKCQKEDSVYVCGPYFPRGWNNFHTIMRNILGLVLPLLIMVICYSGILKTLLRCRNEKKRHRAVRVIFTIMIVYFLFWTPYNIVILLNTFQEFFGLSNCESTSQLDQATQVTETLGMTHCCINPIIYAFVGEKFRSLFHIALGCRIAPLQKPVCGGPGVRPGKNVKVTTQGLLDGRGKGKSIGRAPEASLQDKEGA

C[C@H](C(=O)O)c1ccc2oc(-c3ccc(F)cc3)nc2c1 [FLUNOXAPROFEN]
Not Active: IC50 [1] | Ki [1] | IC50 [2] | IC50 [3] | Ki [3] | IC50 [4] | Ki [4] | IC50 [5] | IC50 [6] | IC50 [7]

CN(CCOc1ccc(C[C@H](Nc2ccccc2C(=O)c2ccccc2)C(=O)O)cc1)c1ccccn1
Not Active: IC50 [1] | Ki [1] | IC50 [2] | IC50 [3] | Ki [3] | IC50 [4] | Ki [4] | IC50 [5] | IC50 [6] | IC50 [7]

CCN1CCN(c2cc3c(cc2F)c(=O)c(C(=O)O)cn3C2CC2)CC1 [ENROFLOXACIN]
Not Active: IC50 [1] | Ki [1] | IC50 [2] | IC50 [3] | Ki [3] | IC50 [4] | Ki [4] | IC50 [5] | IC50 [6] | IC50 [7]

C[N+](C)(C)CCOP(=O)([O-])OC[C@H](O)CO
Not Active: IC50 [1] | Ki [1] | IC50 [2] | IC50 [3] | Ki [3] | IC50 [4] | Ki [4] | IC50 [5] | IC50 [6] | IC50 [7]

O=C(Nc1ccc(Cl)c(Cl)c1)c1cc(Cl)cc(Cl)c1O [3,3',4',5-TETRACHLOROSALICYLANILIDE]
Not Active: IC50 [1] | Ki [1] | IC50 [2] | IC50 [3] | Ki [3] | IC50 [4] | Ki [4] | IC50 [5] | IC50 [6] | IC50 [7]

O=C(O)COC(=O)Cc1ccccc1Nc1c(Cl)cccc1Cl [ACECLOFENAC]
Not Active: IC50 [1] | Ki [1] | IC50 [2] | IC50 [3] | Ki [3] | IC50 [4] | Ki [4] | IC50 [5] | IC50 [6] | IC50 [7]

O=c1[nH]c2ccccc2c2ccccc12
Not Active: IC50 [1] | Ki [1] | IC50 [2] | IC50 [3] | Ki [3] | IC50 [4] | Ki [4] | IC50 [5] | IC50 [6] | IC50 [7]

C=CCN1CC[C@]23c4c5ccc(O)c4O[C@H]2/C(=N/N=C2\CC[C@@]4(O)[C@H]6Cc7ccc(O)c8c7[C@@]4(CCN6CC=C)[C@H]2O8)CC[C@@]3(O)[C@H]1C5 [NALOXONAZINE]
Not Active: IC50 [1] | Ki [1] | IC50 [2] | IC50 [3] | Ki [3] | IC50 [4] | Ki [4] | IC50 [5] | IC50 [6] | IC50 [7]

COPPER(II) OXIDE
Not Active: IC50 [1] | Ki [1] | IC50 [2] | Ki [2] | IC50 [3] | Ki [3] | IC50 [4] | Ki [4] | IC50 [5] | Ki [5] | IC50 [6] | Ki [6] | IC50 [7] | Ki [7]

CCO [ALCOHOL]
Not Active: IC50 [1] | Ki [1] | IC50 [2] | IC50 [3] | Ki [3] | IC50 [4] | Ki [4] | IC50 [5] | IC50 [6] | IC50 [7]

CC(N)Cc1c[nH]c2ccc(OCc3cccs3)cc12 (centres undefined) [BW-723C86]
Not Active: IC50 [1] | Ki [1] | IC50 [2] | IC50 [3] | Ki [3] | IC50 [4] | Ki [4] | IC50 [5] | IC50 [6] | IC50 [7]

CCN(CCO)CCCC(C)Nc1ccnc2cc(Cl)ccc12 (centres undefined) [HYDROXYCHLOROQUINE]
Not Active: IC50 [1] | Ki [1] | IC50 [2] | IC50 [3] | Ki [3] | IC50 [4] | Ki [4] | IC50 [5] | IC50 [6] | IC50 [7]

CC(C)Cc1ccc([C@H](C)C(=O)O)cc1 [DEXIBUPROFEN]
Not Active: IC50 [1] | Ki [1] | IC50 [2] | IC50 [3] | Ki [3] | IC50 [4] | Ki [4] | IC50 [5] | IC50 [6] | IC50 [7]

Cl.NC[C@H]1CC[C@H](C(=O)Oc2ccc(CCC(=O)O)cc2)CC1 [CETRAXATE HYDROCHLORIDE]
Not Active: IC50 [1] | Ki [1] | IC50 [2] | IC50 [3] | Ki [3] | IC50 [4] | Ki [4] | IC50 [5] | IC50 [6] | IC50 [7]

Nc1nc(N)c2nc(CNc3ccc(C(=O)N[C@@H](CCC(=O)O)C(=O)O)cc3)cnc2n1 [AMINOPTERIN]
Not Active: IC50 [1] | Ki [1] | IC50 [2] | IC50 [3] | Ki [3] | IC50 [4] | Ki [4] | IC50 [5] | IC50 [6] | IC50 [7]

NC(=O)NC(=O)Cc1ccccc1 [PHENACEMIDE]
Not Active: IC50 [1] | Ki [1] | IC50 [2] | IC50 [3] | Ki [3] | IC50 [4] | Ki [4] | IC50 [5] | IC50 [6] | IC50 [7]

COc1ccc(Cl)cc1C(=O)NCCc1ccc(S(=O)(=O)NC(=O)NC2CCCCC2)cc1 [GLYBURIDE]
Not Active: IC50 [1] | Ki [1] | IC50 [2] | IC50 [3] | Ki [3] | IC50 [4] | Ki [4] | IC50 [5] | IC50 [6] | IC50 [7]

CCN1CCN(C(=O)N[C@@H](C(=O)N[C@@H]2C(=O)N3[C@@H]2SC(C)(C)[C@@H]3C(=O)O)c2ccccc2)C(=O)C1=O [PIPERACILLIN]
Not Active: IC50 [1] | Ki [1] | IC50 [2] | IC50 [3] | Ki [3] | IC50 [4] | Ki [4] | IC50 [5] | IC50 [6] | IC50 [7]

CCC1(c2ccccc2)C(=O)NC(=O)NC1=O [PHENOBARBITAL]
Not Active: IC50 [1] | Ki [1] | IC50 [2] | IC50 [3] | Ki [3] | IC50 [4] | Ki [4] | IC50 [5] | IC50 [6] | IC50 [7]
